Laboratory results taken from patent US20250320211A1, “COMPOUND, COMPOSITION, AND ELECTROPHOTOGRAPHIC PHOTORECEPTOR” (MITSUBISHI CHEMICAL CORPORATION, priority 2022, published 2025).

assay: Evaluation of solubility in organic solvent; type: physicochemical; conditions: toluene/2-propanol mixed solvent
Method: Compounds 1 to 2 or Comparative Compounds 1 to 5 were respectively added to a mixed solvent of toluene/2-propanol=3/7 (mass ratio) at room temperature (25° C.) so as to have a concentration of 8% by mass, and stirred for 10 minutes with a rotor without heating or cooling. The state of dissolution was then visually observed, and the solubility was evaluated according to the following criteria.
When any residue was observed, the mixture was heated in a water bath at a constant temperature (40° C.) for 10 minutes as described below, and the state of dissolution was visually observed again to evaluate the solubility.

SMILES | solubility in organic solvents (in words)
CCCCCCC(CCCCCC)N1C(=O)c2ccc3c4ccc5c6c(ccc(c7ccc(c2c37)C1=O)c64)C(=O)N(C(CCCCCC)CCCCCC)C5=O [Comparative Compound 2] | poor solubility
C=CC(=O)OCCOC(=O)CCC(=O)OCC(CC(C)C)N1C(=O)c2ccc3c4ccc5c6c(ccc(c7ccc(c2c37)C1=O)c64)C(=O)N(C(COC(=O)CCC(=O)OCCOC(=O)C=C)CC(C)C)C5=O (stereo not shown) [Comparative Compound 3] | poor solubility
C=C(C)C(=O)OCC(COC(=O)C(=C)C)OC(=O)CCC(=O)OCC(CC(C)C)N1C(=O)c2ccc3c4ccc5c6c(ccc(c7ccc(c2c37)C1=O)c64)C(=O)N(C(COC(=O)CCC(=O)OC(COC(=O)C(=C)C)COC(=O)C(=C)C)CC(C)C)C5=O (stereo not shown) [Comparative Compound 4] | excellent solubility in organic solvents
C=C(C)C(=O)OCC(COC(=O)C(=C)C)OC(=O)CCC(=O)OCC(COC(=O)CCC(=O)OC(COC(=O)C(=C)C)COC(=O)C(=C)C)N1C(=O)c2ccc3c4ccc5c6c(ccc(c7ccc(c2c37)C1=O)c64)C(=O)N(C(COC(=O)CCC(=O)OC(COC(=O)C(=C)C)COC(=O)C(=C)C)COC(=O)CCC(=O)OC(COC(=O)C(=C)C)COC(=O)C(=C)C)C5=O [Comparative Compound 5] | excellent solubility in organic solvents
